Experimental data: patent US20090156577A1, “7-AMINO ALKYLIDENYL-HETEROCYCLIC QUINOLONES AND NAPHTHYRIDONES” (priority 2004, published 2009)
In brackets after ≈: the same amount, converted by molar mass. Counter-ions that a name gives are not always drawn. Like-named read-outs stand apart in the source and are kept apart here.

Tested on: pathogenic bacteria
Assay: MIC by microdilution broth method (NCCLS M7-A4), in vitro antibacterial activity
Assay type: cell-based
Description: Minimal inhibitory concentration (MIC) has been an indicator of in vitro antibacterial activity widely used in the art. The in vitro antimicrobial activity of the compounds was determined by the microdilution broth method following the test method from the National Committee for Clinical Laboratory Standards (NCCLS). This method is described in the NCCLS Document M7-A4, Vol. 17, No. 2, “Methods for Dilution Antimicrobial Susceptibility Test for Bacteria that Grow Aerobically—Fourth Edition”, which is incorporated herein by reference.
In this method two-fold serial dilutions of drug in cation adjusted Mueller-Hinton broth are added to wells in microdilution trays. The test organisms are prepared by adjusting the turbidity of actively growing broth cultures so that the final concentration of test organism after it is added to the wells is approximately 5×10^4 CFU/well.
Following inoculation of the microdilution trays, the trays are incubated at 35° C. for 16-20 hours and then read. […] The amount of growth in the wells containing the test compound is compared with the amount of growth in the growth-control wells (no test compound) used in each tray. As set forth in Table 5, compounds of the present invention were tested against a variety of pathogenic bacteria resulting in a range of activities depending on the organism tested.

[1] = Staphylococcus aureus, Organism A: Staphylococcus aureus OC4172, read-out: MIC
[2] = Streptococcus pneumoniae, ATCC49619, Organism E: Streptococcus pneumoniae ATCC 49619, read-out: MIC
[3] = Streptococcus pneumoniae, Organism C: fluoroquinolone-resistant clinical isolate of Streptococcus pneumoniae (QRDR amino acid substitutions)
[4] = Streptococcus pneumoniae, Organism D: fluoroquinolone-resistant clinical isolate of Streptococcus pneumoniae (QRDR amino acid substitutions)
[5] = Organism A: Staphylococcus aureus OC4172
[6] = Organism C: fluoroquinolone-resistant clinical isolate of Streptococcus pneumoniae (QRDR amino acid substitutions)
[7] = Organism E: Streptococcus pneumoniae ATCC 49619
[8] = Streptococcus pneumoniae, Organism B: fluoroquinolone-resistant clinical isolate of Streptococcus pneumoniae (QRDR amino acid substitutions)

Structure (SMILES)	MIC [1]	MIC [2]	MIC [3]	MIC [4]	MIC [5]	MIC (Organism B: fluoroquinolone-resistant clinical isolate of Streptococcus pneumoniae (QRDR amino acid substitutions))	MIC [6]	MIC (Organism D: fluoroquinolone-resistant clinical isolate of Streptococcus pneumoniae (QRDR amino acid substitutions))	MIC [7]	MIC [8]	MIC (Staphylococcus aureus, Organism A: Staphylococcus aureus OC4172)	MIC (Streptococcus pneumoniae, ATCC49619, Organism E: Streptococcus pneumoniae ATCC 49619)
COc1c(N2CC/C(=C(/F)CN)C(C)C2)c(F)cc2c(=O)c(C(=O)O)cn(C3CC3)c12 (stereo not shown) [Compound 11, (Z)-7-[4-(2-Amino-1-fluoro-ethylidene)-3-methyl-piperidin-1-yl]-1-cyclopropyl-6-fluoro-8-methoxy-4-oxo-1,4-dihydro-quinoline-3-carboxylic acid]	0.03 µg/mL (≈ 0.0692 µM)	0.12 µg/mL (≈ 0.277 µM)	0.5 µg/mL (≈ 1.15 µM)	1 µg/mL (≈ 2.31 µM)								
COc1c(N2CCC(=C(F)CN)CC2)c(F)cc2c(=O)c(C(=O)O)cn(C3CC3)c12 [Compound 12, (E)-7-[4-(2-Amino-1-fluoro-ethylidene)-piperidin-1-yl]-1-cyclopropyl-7-6-fluoro-8-methoxy-4-oxo-1,4-dihydro-quinoline-3-carboxylic acid]					0.12 µg/mL (≈ 0.286 µM)	2 µg/mL (≈ 4.77 µM)	4 µg/mL (≈ 9.54 µM)	4 µg/mL (≈ 9.54 µM)	0.5 µg/mL (≈ 1.19 µM)			
COc1c(N2CC/C(=C(\Cl)CN)C2)c(F)cc2c(=O)c(C(=O)O)cn(C3CC3)c12 [Compound 14, (E)-7-[3-(2-Amino-1-chloro-ethylidene)-pyrrolidin-1-yl]-1-cyclopropyl-6-fluoro-8-methoxy-4-oxo-1,4-dihydro-quinoline-3-carboxylic acid]	0.03 µg/mL (≈ 0.0711 µM)	0.25 µg/mL (≈ 0.593 µM)	1 µg/mL (≈ 2.37 µM)	1 µg/mL (≈ 2.37 µM)						2 µg/mL (≈ 4.74 µM)		
NCC=C1CCN(c2nc3c(cc2F)c(=O)c(C(=O)O)cn3C2CC2)CC1 [Compound 59, 7-[4-(2-Amino-ethylidene)-piperidin-1-yl]-1-cyclopropyl-6-fluoro-4-oxo-1,4-dihydro-[1,8]naphthyridine-3-carboxylic acid]	0.06 µg/mL (≈ 0.161 µM)	0.5 µg/mL (≈ 1.34 µM)	8 µg/mL (≈ 21.5 µM)							8 µg/mL (≈ 21.5 µM)		
NCC=C1CCN(c2nc3c(cc2F)c(=O)c(C(=O)O)cn3C2CC2)CC1O (stereo not shown) [Compound 60, 7-[4-(2-Amino-ethylidene)-3-hydroxy-piperidin-1-yl]-1-cyclopropyl-6-fluoro-4-oxo-1,4-dihydro-[1,8]naphthyridine-3-carboxylic acid]	2 µg/mL (≈ 5.15 µM)	16 µg/mL (≈ 41.2 µM)	16 µg/mL (≈ 41.2 µM)									
CON=C1CN(c2nc3c(cc2F)c(=O)c(C(=O)O)cn3C2CC2)CCC1=CCN [Compound 61, 7-[4-(2-Amino-ethylidene)-3-methoxyimino-piperidin-1-yl]-1-cyclopropyl-6-fluoro-4-oxo-1,4-dihydro-[1,8]naphthyridine-3-carboxylic acid]	0.12 µg/mL (≈ 0.289 µM)	1 µg/mL (≈ 2.41 µM)	16 µg/mL (≈ 38.5 µM)									
CC(CN)=C1CCN(c2nc3c(cc2F)c(=O)c(C(=O)O)cn3C2CC2)CC1O (stereo not shown) [Compound 62, 7-[4-(2-Amino-1-methyl-ethylidene)-3-hydroxy-piperidin-1-yl]-1-cyclopropyl-6-fluoro-4-oxo-1,4-dihydro-[1,8]naphthyridine-3-carboxylic acid]	2 µg/mL (≈ 4.97 µM)	8 µg/mL (≈ 19.9 µM)	> 16 µg/mL							> 16 µg/mL		
CC(CN)=C1CCN(c2cc3c(cc2F)c(=O)c(C(=O)O)cn3C2CC2)CC1 [Compound 64, 7-[4-(2-Amino-1-methyl-ethylidene)-piperidin-1-yl]-1-cyclopropyl-6-fluoro-4-oxo-1,4-dihydro-quinoline-3-carboxylic acid]	0.12 µg/mL (≈ 0.311 µM)	1 µg/mL (≈ 2.59 µM)	2 µg/mL (≈ 5.19 µM)	8 µg/mL (≈ 20.8 µM)						8 µg/mL (≈ 20.8 µM)		
NCC(Cl)=C1CCN(c2cc3c(cc2F)c(=O)c(C(=O)O)cn3C2CC2)CC1 [Compound 65, 7-[4-(2-Amino-1-chloro-ethylidene)-piperidin-1-yl]-1-1-cyclopropyl-6-fluoro-4-oxo-1,4-dihydro-quinoline-3-carboxylic acid]	0.03 µg/mL (≈ 0.0739 µM)	0.12 µg/mL (≈ 0.296 µM)	0.5 µg/mL (≈ 1.23 µM)	1 µg/mL (≈ 2.46 µM)								
CCC(CN)=C1CCN(c2nc3c(cc2F)c(=O)c(C(=O)O)cn3C2CC2)CC1 [Compound 69, 7-[4-(1-Aminomethyl-propylidene)-piperidin-1-yl]-1-cyclopropyl-6-fluoro-4-oxo-1,4-dihydro-[1,8]naphthyridine-3-carboxylic acid]	0.06 µg/mL (≈ 0.15 µM)	0.25 µg/mL (≈ 0.624 µM)	1 µg/mL (≈ 2.5 µM)	2 µg/mL (≈ 4.99 µM)								
COc1c(N2CCC(=C(C)CN)CC2)c(F)cc2c(=O)c(C(=O)O)cn(C3CC3)c12 [Compound 70, 7-[4-(2-Amino-1-methyl-ethylidene)-piperidin-1-yl]-1-cyclopropyl-6-fluoro-8-methoxy-4-oxo-1,4-dihydro-quinoline-3-carboxylic acid]				0.25 µg/mL (≈ 0.602 µM)	0.03 µg/mL (≈ 0.0722 µM)		0.25 µg/mL (≈ 0.602 µM)		0.12 µg/mL (≈ 0.289 µM)			
CCC(CN)=C1CCN(c2c(F)cc3c(=O)c(C(=O)O)cn(C4CC4)c3c2OC)CC1 [Compound 71, 7-[4-(1-Aminomethyl-propylidene)-piperidin-1-yl]-1-cyclopropyl-6-fluoro-8-methoxy-4-oxo-1,4-dihydro-quinoline-3-carboxylic acid]	0.03 µg/mL (≈ 0.0698 µM)	0.12 µg/mL (≈ 0.279 µM)	0.25 µg/mL (≈ 0.582 µM)	0.5 µg/mL (≈ 1.16 µM)								
CNCC(Cl)=C1CCN(c2c(F)cc3c(=O)c(C(=O)O)cn(C4CC4)c3c2OC)CC1 [Compound 72, 7-[4-(1-Chloro-2-methylamino-ethylidene)-piperidin-1-yl]-1-cyclopropyl-6-fluoro-8-methoxy-4-oxo-1,4-dihydroquinoline-3-carboxylic Acid Trifluoroacetic Acid Salt]			0.5 µg/mL	0.25 µg/mL						0.25 µg/mL	0.03 µg/mL	0.12 µg/mL
NCC(Cl)=C1CCN(c2c(F)cc3c(=O)c(C(=O)O)cn(C4CC4)c3c2OC(F)F)CC1 [Compound 73, 7-[4-(2-Amino-1-chloro-ethylidene)-piperidin-1-yl]-1-cyclopropyl-8-difluoromethoxy-6-fluoro-4-oxo-1,4-dihydro-quinoline-3-carboxylic acid]	0.06 µg/mL (≈ 0.127 µM)	0.12 µg/mL (≈ 0.254 µM)	1 µg/mL (≈ 2.12 µM)	0.25 µg/mL (≈ 0.53 µM)						0.5 µg/mL (≈ 1.06 µM)		
CNCC(C)=C1CCN(c2c(F)cc3c(=O)c(C(=O)O)cn(C4CC4)c3c2OC(F)F)CC1 [Compound 74, 1-Cyclopropyl-8-difluoromethoxy-6-fluoro-7-[4-(1-methyl-2-methylamino-ethylidene)-piperidin-1-yl]-4-oxo-1,4-dihydro-quinoline-3-carboxylic acid]	0.06 µg/mL (≈ 0.129 µM)			0.25 µg/mL (≈ 0.537 µM)			1 µg/mL (≈ 2.15 µM)		0.12 µg/mL (≈ 0.258 µM)			
CCNCC(Cl)=C1CCN(c2c(F)cc3c(=O)c(C(=O)O)cn(C4CC4)c3c2OC)CC1 [Compound 75, 7-[4-(1-Chloro-2-ethylamino-ethylidene)-piperidin-1-yl]-1-cyclopropyl-6-fluoro-8-methoxy-4-oxo-1,4-dihydro-quinoline-3-carboxylic acid]	0.12 µg/mL (≈ 0.259 µM)	0.25 µg/mL (≈ 0.539 µM)	1 µg/mL (≈ 2.16 µM)	1 µg/mL (≈ 2.16 µM)						1 µg/mL (≈ 2.16 µM)		
NCC(Cl)=C1CCN1c1cc2c(cc1F)c(=O)c(C(=O)O)cn2C1CC1 [Compound 76, 7-[4-(2-Amino-1-chloro-ethylidene)-azetidin-1-yl}-1-cyclopropyl-6-fluoro-4-oxo-1,4-dihydro-quinoline-3-carboxylic acid]	0.03 µg/mL (≈ 0.0794 µM)	0.25 µg/mL (≈ 0.662 µM)	1 µg/mL (≈ 2.65 µM)	2 µg/mL (≈ 5.29 µM)						2 µg/mL (≈ 5.29 µM)		
C[C@H]1COc2c(N3CC(=C(Cl)CN)C3)c(F)cc3c(=O)c(C(=O)O)cn1c23 [Compound 77, 9-[3-(2-Amino-1-chloro-ethylidene)-azetidin-1-yl}-8-fluoro-(3S)-3-methyl-6-oxo-2,3-dihydro-6H-1-oxa-3a-aza-phenalene-5-carboxylic acid]	0.12 µg/mL (≈ 0.305 µM)	1 µg/mL (≈ 2.54 µM)	16 µg/mL (≈ 40.6 µM)	16 µg/mL (≈ 40.6 µM)						8 µg/mL (≈ 20.3 µM)		
COc1c(N2CCC(=C(F)CN)C(C)(C)C2)c(F)cc2c(=O)c(C(=O)O)cn(C3CC3)c12 [Compound 78, 7-[4-(2-Amino-1-fluoro-ethylidene)-3,3-dimethyl-piperidin-1-yl]-1-cyclopropyl-6-fluoro-8-methoxy-4-oxo-1,4-dihydro-quinoline-3-carboxylic acid]	1 µg/mL (≈ 2.23 µM)	0.25 µg/mL (≈ 0.559 µM)	1 µg/mL (≈ 2.23 µM)							2 µg/mL (≈ 4.47 µM)		
CNCC(C)=C1CCN(c2nc3c(cc2F)c(=O)c(C(=O)O)cn3C2CC2)CC1 [Compound 79, 1-Cyclopropyl-6-fluoro-7-[4-(1-methyl-2-methylamino-ethylidene)-piperidin-1-yl]-4-oxo-1,4-dihydro-[1,8]naphthyridine-3-carboxylic acid]		0.25 µg/mL (≈ 0.624 µM)	2 µg/mL (≈ 4.99 µM)	1 µg/mL (≈ 2.5 µM)	0.06 µg/mL (≈ 0.15 µM)							
NCC(F)=C1CN(c2nc3c(cc2F)c(=O)c(C(=O)O)cn3C2CC2)C1 [Compound 80, 7-[3-(2-Amino-1-fluoro-ethylidene)-azetidin-1-yl]-1-cyclopropyl-6-fluoro-4-oxo-1,4-dihydro-[1,8]naphthyridine-3-carboxylic acid]	0.06 µg/mL (≈ 0.166 µM)	0.12 µg/mL (≈ 0.331 µM)	2 µg/mL (≈ 5.52 µM)	1 µg/mL (≈ 2.76 µM)						0.5 µg/mL (≈ 1.38 µM)		
